Reference: patent US20140200134A1, “Anthranilamide Compounds and their use as Pesticides” (BASF SE, priority 2011, published 2014)

Legend:
Format in all cases: in vivo
[1] = system: Cowpea aphid (aphis craccivora); assay: Cowpea aphid spray test on potted cowpea plants; conditions: sprayed cowpea plants, assessed after 72 hours, read-out: mortality in comparison with untreated controls
Description: B.1 Cowpea aphid (aphis craccivora)
The active compound was dissolved at the desired concentration in a mixture of 1:1 (vol:vol) distilled water:acetone. Surfactant (Alkamuls® EL 620) was added at a rate of 0.1% (vol/vol). The test solution was prepared at the day of use.
Potted cowpea plants were colonized with approximately 50-100 aphids of various stages by manually transferring a leaf tissue cut from infested plant 24 hours before application. Plants were sprayed after the pest population had been recorded. Treated plants were maintained on light carts at about 28° C. Percent mortality was assessed after 72 hours.

[2] = system: Boll weevil (Anthonomus grandis); assay: Boll weevil microtiter plate diet test; conditions: 120 h, sprayed onto insect diet, egg and larval mortality after 5 days, read-out: mortality in comparison with untreated controls
Description: B.8 Boll weevil (Anthonomus grandis)
For evaluating control of boll weevil (Anthonomus grandis) the test unit consisted of 96-well-microtiter plates containing an insect diet and 20-30 A. grandis eggs.
(§1) The compounds were formulated using a solution containing 75% v/v water and 25% v/v DMSO. Different concentrations of formulated compounds were sprayed onto the insect diet at 5 μl, using a custom built micro atomizer, at two replications.
After application, microtiter plates were incubated at about 25±1° C. and about 75±5% relative humidity for 5 days. Egg and larval mortality was then visually assessed.

[3] = system: Vetch aphid (Megoura viciae); assay: Vetch aphid broad bean leaf disk microtiter test; conditions: foliar, 120 h, sprayed broad bean leaf disks, adult aphids, 5 days, read-out: mortality in comparison with untreated controls
Description: B.6 Vetch aphid (Megoura viciae)
For evaluating control of vetch aphid (Megoura viciae) through contact or systemic means the test unit consisted of 24-well-microtiter plates containing broad bean leaf disks. The compounds were formulated using a solution containing 75% v/v water and 25% v/v DMSO. Different concentrations of formulated compounds were sprayed onto the leaf disks at 2.5 μl, using a custom built micro atomizer, at two replications.
After application, the leaf disks were air-dried and 5-8 adult aphids placed on the leaf disks inside the microtiter plate wells. The aphids were then allowed to suck on the treated leaf disks and incubated at about 23±1° C. and about 50±5% relative humidity for 5 days. Aphid mortality and fecundity was then visually assessed.

[4] = system: Green Peach Aphid (Myzus persicae); assay: Green peach aphid spray test on bell pepper plants; conditions: 120 h, sprayed infested bell pepper plants, after 5 days, read-out: mortality in comparison with untreated controls
Text: B.9 Green Peach Aphid (Myzus persicae)
(§2) The active compounds were formulated in cyclohexanone as a 10,000 ppm solution supplied in tubes. The tubes were inserted into an automated electrostatic sprayer equipped with an atomizing nozzle and they served as stock solutions for which lower dilutions were made in 50% acetone:50% water (v/v). A nonionic surfactant (Kinetic®) was included in the solution at a volume of 0.01% (v/v).
Bell pepper plants at the first true-leaf stage were infested prior to treatment by placing heavily infested leaves from the main colony on top of the treatment plants. Aphids were allowed to transfer overnight to accomplish an infestation of 30-50 aphids per plant and the host leaves were removed. The infested plants were then sprayed by an automated electrostatic plant sprayer equipped with an atomizing spray nozzle. The plants were dried in the sprayer fume hood, removed, and then maintained in a growth room under fluorescent lighting in a 24-hr photoperiod at about 25° C. and about 20-40% relative humidity. Aphid mortality on the treated plants, relative to mortality on untreated control plants, was determined after 5 days.

[5] = system: Mediterranean fruitfly (Ceratitis capitata); assay: Mediterranean fruitfly microtiter plate diet test; conditions: 120 h, sprayed onto insect diet, egg and larval mortality after 5 days, read-out: mortality in comparison with untreated controls
Description: B.3 Mediterranean fruitfly (Ceratitis capitata)
For evaluating control of Mediterranean fruitfly (CeratitiS capitate) the test unit consisted of microtiter plates containing an insect diet and 50-80 C. capitata eggs.
as §1
After application, microtiter plates were incubated at about 28±1° C. and about 80±5% relative humidity for 5 days. Egg and larval mortality was then visually assessed.

[6] = system: Orchid thrips (dichromothrips corbetti); assay: Orchid thrips floral-immersion test; conditions: dipped orchid flowers, adult thrips, 72 hours after treatment, read-out: mortality in comparison with untreated controls
Description: B.4 Orchid thrips (dichromothrips corbetti)
Dichromothrips corbetti adults used for bioassay were obtained from a colony maintained continuously under laboratory conditions. For testing purposes, the test compound was diluted in a 1:1 mixture of acetone:water (vol:vol), plus 0.01% vol/vol Alkamuls® EL 620 surfactant.
Thrips potency of each compound was evaluated by using a floral-immersion technique. Plastic petri dishes were used as test arenas. All petals of individual, intact orchid flowers were dipped into treatment solution and allowed to dry. Treated flowers were placed into individual petri dishes along with about 20 adult thrips. The petri dishes were then covered with lids. All test arenas were held under continuous light and a temperature of about 28° ° C. for duration of the assay. After 3 days, the numbers of live thrips were counted on each flower, and along inner walls of each petri dish. The percent mortality was recorded 72 hours after treatment.

[7] = system: Tobacco budworm (Heliothis virescens); assay: Tobacco budworm foliar spray test on cotton plants; conditions: 96 h, sprayed cotton plants, larvae, 4 days after treatment, read-out: mortality in comparison with untreated controls
Description: B.7 Tobacco budworm (Heliothis virescens) I
as §2
Cotton plants were grown 2 plants to a pot and selected for treatment at the cotyledon stage. Test solutions were sprayed onto the foliage by an automated electrostatic plant sprayer equipped with an atomizing spray nozzle. The plants were dried in the sprayer fume hood and then removed from the sprayer. Each pot was placed into perforated plastic bags with a zip closure. About 10 to 11 budworm larvae were placed into the bag and the bags zipped closed. Test plants were maintained in a growth room at about 25° C. and about 20-40% relative humidity for 4 days, avoiding direct exposure to fluorescent light (24 hour photoperiod) to prevent trapping of heat inside the bags. Mortality and reduced feeding were assessed 4 days after treatment, compared to untreated control plants.

[8] = system: Diamond back moth (plutella xylostella); assay: Diamond back moth cabbage leaf-dip test; conditions: dipped cabbage leaves, 3rd instar larvae, 72 hours after treatment, read-out: mortality in comparison with untreated controls
Description: B.2 Diamond back moth (plutella xylostella)
The active compound was dissolved at the desired concentration in a mixture of 1:1 (vol:vol) distilled water:acteone. Surfactant (Alkamuls® EL 620) was added at a rate of 0.1% (vol/vol). The test solution was prepared at the day of use.
Leaves of cabbage were dipped in test solution and air-dried. Treated leaves were placed in petri dishes lined with moist filter paper and inoculated with ten 3rd instar larvae. Mortality was recorded 72 hours after treatment. Feeding damages were also recorded using a scale of 0-100%.

CNC(=O)c1cc(/C=N/OC)cc(C)c1NC(=O)c1ccc(C(F)(F)F)cc1-c1ncccc1Cl [Compound 1-1, 2-[[2-(3-chloro-2-pyridyl)-4-(trifluoromethyl)benzoyl]amino]-5-[(E)-methoxyiminomethyl]-N,3-dimethyl-benzamide]
> 75%: mortality at 500 ppm [1] | mortality at 2500 ppm [2] | mortality at 2500 ppm [3] | mortality at 2500 ppm [4] | mortality at 2500 ppm [5] | mortality at 500 ppm [6] | mortality at 2500 ppm [7] | mortality at 500 ppm [8]

CNC(=O)c1cc(-n2cncn2)cc(C)c1NC(=O)c1ccc(C(F)(F)F)cc1-c1ncccc1Cl [Compound 1-2, 2-[[2-(3-chloro-2-pyridyl)-4-(trifluoromethyl)benzoyl]amino]N,3-dimethyl-5-(1,2,4-triazol-1-yl)benzamide]
> 75%: mortality at 500 ppm [1] | mortality at 2500 ppm [2] | mortality at 2500 ppm [3] | mortality at 2500 ppm [4] | mortality at 2500 ppm [5] | mortality at 500 ppm [6] | mortality at 2500 ppm [7]

CNC(=O)c1cc(/C=N/NC(N)=O)cc(C)c1NC(=O)c1ccc(C(F)(F)F)cc1-c1ncccc1Cl [Compound 1-3, 5-[(E)-(carbamoylhydrazono)methyl]-2-[[2-(3-chloro-2-pyridyl)-4-(trifluoromethyl)benzoyl]amino]-N,3-dimethyl-benzamide]
> 75%: mortality at 500 ppm [1] | mortality at 2500 ppm [4] | mortality at 2500 ppm [7]
